“Also recorded” adds a separate entry of the source.
What was measured:
[1] = test system: PSA, NKX3,1 and TMPRSS2 genes; assay: Testosterone-independent expression of AR-target genes; format: cell-based
Ack1 [2] = biological target: T1, Ack1 (Homo sapiens, UniProt Q07912, E346K); format: biochemical; details: 5 uM for 1 hour at 30° C.
T1 construct: HA; made in house
Method: To test whether Ack1 directly phosphorylates H4, in vitro kinase assay (Mahajan, K., et al. PLoS One 5, e9646 (2010)) was performed. […] HEK293 cells were treated with EGF or EGF+AIM-100 (5 uM, 14 hour) and lysates were immunoprecipitated with Ack1 antibodies followed by immunoblotting with H4 antibodies.

Ack1 [3] = assay: Ack1 phosphorylation of histone H3 at Tyr99 in ligand-treated cell lines; format: cell-based
Text: The discovery was made that Ack1 phosphorylates histone H3 at tyrosine 99. To delineate functional consequences of H3 Ty99-phosphorylation, phospho-antibodies were raised. […] Thus, marking of chromatin with H3-Tyr99-phosphorylation within AR-target gene promoters may suppress repressive dimethylation leading to transcriptional activation in androgen-deprived environment of CRPC tumors. This study uncovers a previously unknown mechanism of regulation of pTyr267-AR-target gene expression, which can be therapeutically reversed by suppression of Ack1/AR/pTyr99-H3 signaling by AIM-100.

Xenopus laevis embryos = assay: Xenopus embryo injection, gastrulation/epiboly phenotype
Text: Table 4 provides the phenotype distribution for surviving embryos (raw data are identical to those in Table 3).

[4] = test system: LNCaP-caAck expressing cells; assay: Prostate xenograft tumor growth, LNCaP-caAck cells in castrated nude male mice; format: in vivo; details: 4 mg/kg of body weight per injection, five times
Method: Castrated nude male mice were injected with LNCaP-caAck expressing cells. Mice were injected with AIM-100 (4 mg/kg of body weight per injection) on five times (n=8) and tumor volumes were measured.

Ack1 [5] = biological target: T2, Ack1 (Homo sapiens, UniProt Q07912); format: cell-based; parameters: endogenous in cells; host or cells: LAPC4
T2 sequence (Q07912 whole entry): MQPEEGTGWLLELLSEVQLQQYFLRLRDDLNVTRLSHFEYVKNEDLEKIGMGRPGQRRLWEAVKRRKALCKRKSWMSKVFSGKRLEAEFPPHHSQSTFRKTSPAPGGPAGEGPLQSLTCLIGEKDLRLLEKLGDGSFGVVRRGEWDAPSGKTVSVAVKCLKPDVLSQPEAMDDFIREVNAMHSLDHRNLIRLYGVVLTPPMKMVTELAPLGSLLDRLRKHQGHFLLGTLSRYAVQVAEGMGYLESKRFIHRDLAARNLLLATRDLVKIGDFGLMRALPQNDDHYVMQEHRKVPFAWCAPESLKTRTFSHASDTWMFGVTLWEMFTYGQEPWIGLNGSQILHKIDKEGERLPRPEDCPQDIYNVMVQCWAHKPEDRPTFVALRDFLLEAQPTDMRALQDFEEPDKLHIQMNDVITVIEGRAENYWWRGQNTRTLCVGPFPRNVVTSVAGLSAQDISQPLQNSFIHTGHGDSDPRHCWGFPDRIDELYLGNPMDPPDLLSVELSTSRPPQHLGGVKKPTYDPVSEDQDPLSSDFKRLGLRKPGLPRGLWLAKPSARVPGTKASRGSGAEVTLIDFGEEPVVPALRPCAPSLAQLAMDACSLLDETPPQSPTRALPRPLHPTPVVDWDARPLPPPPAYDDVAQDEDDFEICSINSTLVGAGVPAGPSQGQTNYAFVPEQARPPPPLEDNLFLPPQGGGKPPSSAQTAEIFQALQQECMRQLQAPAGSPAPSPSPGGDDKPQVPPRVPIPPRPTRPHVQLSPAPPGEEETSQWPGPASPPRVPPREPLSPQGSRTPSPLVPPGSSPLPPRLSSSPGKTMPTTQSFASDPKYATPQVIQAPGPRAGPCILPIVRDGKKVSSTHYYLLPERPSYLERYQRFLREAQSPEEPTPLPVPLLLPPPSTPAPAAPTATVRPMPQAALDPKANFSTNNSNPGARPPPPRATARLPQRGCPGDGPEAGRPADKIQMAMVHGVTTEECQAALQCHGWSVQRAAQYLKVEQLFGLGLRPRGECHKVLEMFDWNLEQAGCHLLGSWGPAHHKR
Method: The prostate cancer derived cells, LAPC4 were treated with AIM-100 (7 uM, 16 hours). The equal amount of cell lysates were subjected to immunoblotting with H3K9me3 and histone H3 antibodies. […] The histone H3 antibodies were used as a control to indicate equal amount of protein.
LAPC4 cells were treated with EGF or EGF and AIM-100 and the lysates were immunoblotted with H3K9 dimethyl and H3K27 dimethyl antibodies.

Ack1 [6] = biological target: T2, Ack1; assay: H4 Tyr51-phosphorylation in EGF-treated HEK293T cells (IP/immunoblot); format: cell-based; parameters: endogenous in cells; host or cells: HEK293T; details: serum starved HEK293T, EGF+AIM-100
Method: To examine whether H4 is a Ack1 kinase substrate, cells were treated with EGF or EGF+Ack1 inhibitor, AIM-100 (Mahajan, K., et al. Prostate 70, 1274-1285 (2010)). Specifically, serum starved HEK293T were treated with EGF or EGF+AIM-100 and cells were harvested. […] Equal amounts of lysates were immunoblotted with H4 antibody or pTyr284-Ack1 antibody.

Ack1 [7] = biological target: T2, Ack1; format: biochemical; parameters: endogenous in cells; host or cells: LAPC4; details: purified Ack1, H4 peptide, ELISA with pY88 antibodies
Method: WEE1 and Ack1 are two non-receptor tyrosine kinases or NRTKs that have known nuclear functions. To determine whether WEE1 and Ack1 can directly target H4 for Tyr88-phosphorylation, this study performed in vitro kinase assay. In brief, the Streptavidin coated 96-well plates (R&D systems) were incubated with biotinylated H4-derived peptide […] (SEQ ID NO: 64) for 1 hour. The plates were washed and the purified WEE1 or Ack1 were added in kinase buffer (20 mM HEPES, 150 mM NaCl, 0.5% Triton X-100, 10% Glycerol, phosphatase and protease inhibitors) containing ATP and MgCl2. After 2 hours of incubation, plates were washed with phosphate buffered saline containing 0.1% Tween 20 (PBST) and blocked in 3% BSA. The pY88-H4 antibodies (at 1:500 dilution) were added and incubated for 1 hour. Unbound antibodies were washed and HRP-conjugated anti-mouse secondary Antibodies (1:2000) were added. Magnitude of phosphorylation was detected using developer solution (OPD tablets, Sigma) and the plates were read at 450 nm. As a negative control, no kinase and no peptide reactions were used. The biotinylated phosphopeptide […]p[…] (SEQ ID NO: 65) was used as a positive control.

pTyr267-AR = assay: ChIP-qPCR for pTyr267-AR binding to PSA, NKX3.1 and TMPRSS2 AREs in LAPC4 cells; format: cell-based; details: 0.8 μM, 16 hr
Method: LAPC4 cells were treated with DHT (5 nM, 16 hr), EGF (10 ng/ml, 1 hr), or EGF and AIM-100 (0.8 μM, 16 hr) and ChIP analysis for pTyr267-AR binding to the PSA, NKX3.1 and TMPRSS2 AREs was performed followed by qPCR. Ack1 inhibition by AIM-100 suppressed recruitment of pTyr-AR to PSA, NKX3,1 and TMPRSS2 promoters (FIGS. 8A-8C).

[8] = test system: S. cerevisiae wildtype and H2BY40A mutants; assay: Yeast spot growth assay on YPD plates with MMS; format: cell-based, Saccharomyces cerevisiae; details: in contrast to wild type cells, growth 72 h post-plating
Method: Wt and H2BY40A mutants were serially diluted and spotted on YPD plates in the absence or presence of MMS and growth was assessed 72 h post-plating.
To test whether excess of histones interfere with the ability of cells to repair DNA damage, S. cerevisiae wildtype (Wt) and H2BY40A mutants were exposed to DNA alkylating agent Methylmethane sulphonate (MMS). MMS inhibits DNA replication by methylating adenine or guanine in the DNA to cause base mispairing and stalling of replication forks, until the mutated/alkylated bases are excised out and replaced with the normal bases by the DNA alkyl transferases or the nucleotide repair machinery. […] Rad53 is a functional homologue of human Chk1 and Chk2 in budding yeast. It not only senses DNA replication stress during S phase but also acts as a surveillance machinery to detect excess histones that are not packaged into chromatin and targets them for degradation.

[9] = test system: core histone genes in Hist1 cluster; assay: Quantitative RT-PCR of core histone transcripts in synchronized MEFs; format: cell-based, mouse; details: MK1775 0.625 μM, 14 hr; 8.30 hours post-release
Method: MEFs or H1975 were grown to 60-70% confluency in serum rich media. Thymidine is added at a final concentration of 2 mM and incubated for 17 hours. Cells were washed three times with phosphate buffered saline (PBS) and fresh serum containing media was added. After 10 hours, thymidine was added again to 2 mM final concentration. The cells were incubated for 17 hours and washed three times with PBS, replaced with serum containing media and time points were collected. All RT reactions were done (Mahajan, K. et al. PLoS One 5, e9646 (2010)) at the same time so that the same reactions could be used for all gene studies. For the construction of standard curves, serial dilutions of pooled sample RNA were used (50, 10, 2, 0.4, 0.08, and 0.016 ng) per reverse transcriptase reaction. One “no RNA” control and one “no Reverse Transcriptase” (No RT) controls were included for the standard curve. Three reactions were performed for each sample: 10 ng, 0.8 ng, and a No RT (10 ng) control. Real-time quantitative PCR analyses were performed using the ABI PRISM 7900HT Sequence Detection System (Applied Biosystems). […] Data were analyzed using SDS software version 2.2.2 and exported into an Excel spreadsheet. […]

[10] = test system: pTyr37-H2B upstream of Hist1 cluster; assay: Native ChIP-qPCR with pTyr37-H2B antibody, Site I and II upstream of Hist1 cluster, synchronized MEFs; format: cell-based, mouse; details: 6.30 hours post-release
Method: MEFs or H1975 were grown to 60-70% confluency in serum rich media. Thymidine is added at a final concentration of 2 mM and incubated for 17 hours. Cells were washed three times with phosphate buffered saline (PBS) and fresh serum containing media was added. After 10 hours, thymidine was added again to 2 mM final concentration. The cells were incubated for 17 hours and washed three times with PBS, replaced with serum containing media and time points were collected.
As a first step, extensive standardization of pTyr37-H2B antibodies were performed for its usage in ChIP. CHIP was performed using the Active Motif kit as per manufacturer's instructions. For ChIP synchronized MEFs were harvested at 0 and 6.30 hour post thymidine release (5×10^7 cells). Cells pellets were lysed in RLB buffer (Mahajan, N. P. et al. Proc. Nat. Acad. Sci. U.S.A. 104, 8438-8443 (2007); Mahajan, K. et al. Prostate 70, 1274-1285 (2010)) on ice for 10 minutes and sonicated for 25 seconds to shear DNA to an average length of 300-500 bp. The soluble chromatin was incubated overnight at 4° C. with pTyr37-H2B antibody. 20 μl of protein-A agarose was added and the beads were washed sequentially and DNA was eluted. […] Pellets were resuspended and the resulting DNA was quantified on a NanoDrop spectrophotometer. Extrapolation to the original chromatin volume allowed quantitation of the total chromatin yield. […]

[11] = test system: cancers and cancer cell lines; details: cited from earlier work
[12] = test system: WEE1 expressing cancer cell lines; details: cited from earlier work
[13] = test system: core histone genes located in Hist1 cluster; assay: qRT-PCR of histone genes in synchronized cells (8-histone gene signature); format: cell-based; details: MK1775 0.6 uM, 14 hr; 8.30 hours post-release
Method: Human cells have 55 distinct histone genes each encoding a fraction of core histones. This study determined histone levels using 20 of these genes. In untreated cells, rapid decrease in transcripts of all of these histone genes was observed when RNA levels of 6.30 hours post-release samples (late S phase) were compared with 8.30 hours post-release (G2/M phase) samples (FIG. 33a-h).

[14] = test system: NPAT and RNA polymerase II at site II; assay: ChIP-qPCR with NPAT or RNA polymerase II antibodies at Site II, synchronized MEFs; format: cell-based, mouse; details: 6.30 hours post-release
Method: As a first step, extensive standardization of pTyr37-H2B antibodies were performed for its usage in ChIP. CHIP was performed using the Active Motif kit as per manufacturer's instructions. For ChIP synchronized MEFs were harvested at 0 and 6.30 hour post thymidine release (5×10^7 cells). Cells pellets were lysed in RLB buffer (Mahajan, N. P. et al. Proc. Nat. Acad. Sci. U.S.A. 104, 8438-8443 (2007); Mahajan, K. et al. Prostate 70, 1274-1285 (2010)) on ice for 10 minutes and sonicated for 25 seconds to shear DNA to an average length of 300-500 bp. The soluble chromatin was incubated overnight at 4° C. with pTyr37-H2B antibody. 20 μl of protein-A agarose was added and the beads were washed sequentially and DNA was eluted. Genomic DNA (Input) was prepared by treating aliquots of chromatin with RNase, proteinase-K followed by ethanol precipitation. Pellets were resuspended and the resulting DNA was quantified on a NanoDrop spectrophotometer. Extrapolation to the original chromatin volume allowed quantitation of the total chromatin yield. An aliquot of chromatin (20-30 μg) was pre-cleared with protein-A agarose beads (Invitrogen). Genomic DNA regions of interest were isolated using pTyr37-H2B antibody. […]
To understand the potential mechanism of repression of histone transcription the role of NPAT was assessed. […]

[15] = Table 3, antibodies 200 ng/em, AIM-100 200 pM/em

T1 sequence (Q07912 whole entry E346K): as the sequence (Q07912 whole entry) above, with E346K counted along it

c1ccc(-c2oc3ncnc(NC[C@@H]4CCCO4)c3c2-c2ccccc2)cc1 [AIM-100]
testosterone-independent expression of PSA, NKX3,1 and TMPRSS2 genes [1]: suppressed | H4 pTyr51-phosphorylation (Ack1 [2]): abrogated | Ack1 phosphorylation of H3 at Tyr99 (Ack1 [3]): significantly compromised | abn/delay, gastrulation is abnormal or delayed (% of total embryos) (Xenopus laevis embryos; [15]): 6.7% | abn/delay, gastrulation is abnormal or delayed (number of embryos) (Xenopus laevis embryos; [15]): 15 | dead (% of total embryos) (Xenopus laevis embryos; [15]): 43% | dead (number of embryos) (Xenopus laevis embryos; [15]): 97 | epib blk, epiboly block phenotype (% of total embryos) (Xenopus laevis embryos; [15]): 29% | epib blk, epiboly block phenotype (number of embryos) (Xenopus laevis embryos; [15]): 65 | epib red, partial phenotype (% of total embryos) (Xenopus laevis embryos; [15]): 8% | epib red, partial phenotype (number of embryos) (Xenopus laevis embryos; [15]): 18 | norm. (% of total embryos) (Xenopus laevis embryos; [15]): 11% | norm. (number of embryos) (Xenopus laevis embryos; [15]): 24 | Tot survivors (Xenopus laevis embryos; Table 4): 128 | abn/delay (% of surviving embryos) (Xenopus laevis embryos; Table 4, surviving embryos): (12%) | abn/delay (number of surviving embryos) (Xenopus laevis embryos; Table 4, surviving embryos): 15 | epib blk (number of surviving embryos) (Xenopus laevis embryos; Table 4, surviving embryos): 65 | epib red (number of surviving embryos) (Xenopus laevis embryos; Table 4, surviving embryos): 18 | normal (% of surviving embryos) (Xenopus laevis embryos; Table 4, surviving embryos): 19% | normal (number of surviving embryos) (Xenopus laevis embryos; Table 4, surviving embryos): 24 | mortality rates (Xenopus laevis embryos; by the onset of gastrulation, ~20 hours after microinjection at the 2-cell stage, 16° C.): 43-45% | mortality at the onset of gastrulation versus controls (Xenopus laevis embryos; in vivo): Neither pTyr51-H4 nor AIM-100 lead to increased mortality | timing or pattern of early cleavages (Xenopus laevis embryos; in vivo): did not alter | epib blk, epiboly block/involution failure (% of surviving embryos) (Xenopus laevis embryos; surviving embryos): 51% | epib red, partial reduced epiboly phenotype (% of surviving embryos) (Xenopus laevis embryos; surviving embryos): 14% | epib blk, epiboly block/involution failure (% of surviving embryos) (Xenopus laevis embryos; surviving embryos, listed as AIM 100): (51%) | prostate xenograft tumor growth [4]: mitigated; also recorded: partially suppresses | H3K9 and K27 dimethylation and trimethylation (Ack1 [5]): increased | H3 K9 trimethylation (Ack1 [5]; LAPC4 cells, 7 uM, 16 hours): increased; also recorded: significant increase | H3K9 and K27 dimethylation (Ack1 [5]; LAPC4 cells, EGF and AIM-100): increased | H4 pTyr51-phosphorylation (Ack1 [6]): almost complete loss | H4 Tyr88-phosphorylation (Ack1 [7]): significantly decreased; also recorded: significantly reduced | recruitment of pTyr-AR to PSA, NKX3,1 and TMPRSS2 promoters (pTyr267-AR): suppressed

COS(C)(=O)=O [MMS, Methylmethane sulphonate]
sensitivity of H2BY40A mutants [8]: acute sensitivity; also recorded: marked sensitivity

MK-1775
histone mRNA levels [9]: significant increase | occurrence of pTyr37-H2B at site I and II [10]: significantly reduced | sensitization to DNA damaging agents such as gemcitabine, 5-fluorouracil [11]: able to sensitize | apoptosis [12]: selectively induce apoptosis | histone mRNA levels [13]: did not decrease | recruitment of NPAT and RNA polymerase II [14]: binding was detected

Reference: patent publication US20140134178A1, “PHOSPHORYLATION OF HISTONES AND USES THEREOF” (H. LEE MOFFITT CANCER CENTER AND RESEARCH INSTITUTE, priority 2012, published 2014)
